In test [1] the test system is kochia. Description: Test C preemergence. It is filed as in vivo, Kochia scoparia. The following applies: for Plant response rating (scale of 0 to 100), Kochia: Preemergence, 250 g ai/ha; for Kochia plant response rating / Plant response rating, Kochia: preemergence; for Plant response rating, Kochia: 62 g ai/ha, scale 0 to 100, 0 = no effect, 100 = complete control. From the text: (§1) Seeds of plant species selected from blackgrass (Alopecurus myosuroides), ryegrass, Italian (Italian ryegrass, Lolium multiflorum), wheat (winter wheat, Triticum aestivum), galium (catchweed bedstraw, Galium aparine), corn (Zea mays), crabgrass, large (large crabgrass, Digitaria sanguinalis), foxtail, giant (giant foxtail, Setaria faberii), johnsongrass (Sorghum halepense), lambsquarters (Chenopodium album), morningglory (Ipomoea coccinea), nutsedge, yellow (yellow nutsedge, Cyperus esculentus), pigweed (redroot pigweed, Amaranthus retroflexus), ragweed (common ragweed, Ambrosia elation), soybean (Glycine max), barnyardgrass (Echinochloa crus-galli), oilseed rape (Brassica napus), waterhemp (common waterhemp, Amaranthus rudis), oat, wild (wild oat, Avena fatua), kochia (Kochia scoparia), Surinam grass (Brachiaria decumbens), foxtail, green (green foxtail, Setaria viridis), goosegrass (Eleusine indica), bromegrass, downy (downy bromegrass, Bromus tectorum), nightshade (eastern black nightshade, Solanum ptycanthum), cocklebur (common cocklebur, Xanthium strumarium), cupgrass, woolly (woolly cupgrass, Eriochloa villosa), bermudagrass (Cynodon dactylon), sunflower, (common oilseed sunflower, Helianthus annuus), Russian thistle (Salsola kali), and velvetleaf (Abutilon theophrasti) were planted into a blend of loam soil and sand and treated preemergence with test chemicals formulated in a non-phytotoxic solvent mixture which included a surfactant.
(§2) At the same time, plants selected from these crop and weed species and also chickweed (common chickweed, Stellaria media), canarygrass (littleseed canarygrass, Phalaris minor), and deadnettle (henbit deadnettle, Lamium amplexicaule), were planted in pots containing Redi-Earth® planting medium (Scotts Company, 14111 Scottslawn Road, Marysville, Ohio 43041) comprising spaghnum peat moss, vermiculite, wetting agent and starter nutrients and treated with postemergence applications of test chemicals formulated in the same manner. Plants ranged in height from 2 to 18 cm (1- to 4-leaf stage) for postemergence treatments. Treated plants and controls were maintained in a greenhouse for 13 to 15 days, after which time all species were compared to controls and visually evaluated. Plant response ratings, summarized in Table C, are based on a scale of 0 to 100 where 0 is no effect and 100 is complete control. A dash (-) response means no test result.

The subject of test [2] is barley. Description: Test C postemergence. It is filed as in vivo, Hordeum vulgare. The following applies: scale 0 to 100.
The test system of test [3] is deadnettle. Description: Test C postemergence. Type of test: in vivo, Lamium amplexicaule. The following applies: for Deadnettle plant response rating: scale 0 to 100.
Source text: as §1, §2

The subject of test [4] is nightshade. The test is described as follows: Test C preemergence. Type of test: in vivo, Solanum ptycanthum. The following applies: for Plant response rating (scale of 0 to 100), Nightshade: Preemergence, 250 g ai/ha; for Nightshade plant response rating / Plant response rating, Nightshade: preemergence; for Plant response rating, Nightshade: 62 g ai/ha, scale 0 to 100, 0 = no effect, 100 = complete control.
Source text: as §1, §2

Test [5] has as its system giant foxtail. Description: Test F preemergence. It is filed as in vivo, Setaria faberii. From the text: (§3) Seeds of plant species selected from corn (Zea mays), soybean (Glycine max), velvetleaf (Abutilon theophrasti), lambsquarters (Chenopodium album), wild poinsettia (Euphorbia heterophylla), pigweed, palmer (palmer pigweed, Amaranthus palmeri), common waterhemp (Amaranthus rudis), surinam grass (Brachiaria decumbens), large crabgrass (Digitaria sanguinalis), crabgrass, Brazil (Brazilian crabgrass, Digitaria horizontalis), fall panicum (Panicum dichotomiflorum), giant foxtail (Setaria faberii), green foxtail (Setaria viridis), goosegrass (Eleusine indica), johnsongrass (Sorghum halepense), common ragweed (Ambrosia elation), barnyardgrass (Echinochloa crus-galli), southern sandbur (Cenchrus echinatus), arrowleaf sida (Sida rhombifolia), Italian ryegrass (Lolium multiflorum), dayflower, VA (Virginia (VA) dayflower, Commelina virginica), field bindweed (Convolvulus arvensis), cocklebur (common cocklebur, Xanthium strumarium), morningglory (Ipomoea coccinea), nightshade (eastern black nightshade, Solanum ptycanthum), kochia (Kochia scoparia), yellow nutsedge (Cyperus esculentus), and hairy beggarticks (Bidens pilosa), were planted into a silt loam soil and treated preemergence with test chemicals formulated in a non-phytotoxic solvent mixture which included a surfactant.
(§4) At the same time, plants from these crop and weed species and also horseweed (Canada horseweed, Conyza canadensis), smartweed (ladysthumb smartweed, Polygonum persicaria), waterhemp_RES1, (ALS & Triazine resistant common waterhemp, Amaranthus rudis), and waterhemp_RES2, (ALS & HPPD resistant common waterhemp, Amaranthus rudis) were treated with postemergence applications of test chemicals formulated in the same manner. Plants ranged in height from 2 to 18 cm for postemergence treatments (1- to 4-leaf stage). Treated plants and controls were maintained in a greenhouse for 14 to 21 days, after which time all species were compared to controls and visually evaluated. Plant response ratings, summarized in Table F, are based on a scale of 0 to 100 where 0 is no effect and 100 is complete control. A dash (-) response means no test result.

Test [6] deals with nightshade. The test is described as follows: Test F preemergence. It is filed as in vivo, Solanum ptycanthum.
Source text: as §3, §4

The subject of test [7] is velvetleaf. Description: Test F preemergence. Type of test: in vivo, Abutilon theophrasti.
Source text: as §3, §4

Test [8] deals with southern sandbur. Description: Test F preemergence. Type of test: in vivo, Cenchrus echinatus.
Source text: as §3, §4

For test [9], the system named is Italian ryegrass. Description: Test A postemergence. It is filed as in vivo, Lolium multiflorum. Put shortly:
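Greenhouse test in loam soil/sand blend; compounds formulated in non-phytotoxic solvent with surfactant, applied as preemergence directed soil spray or postemergence to plants 2–10 cm tall at one- to two-leaf stage. Injury rated visually versus untreated controls after approximately 10 days on a 0 (no effect) to 100 (complete control) scale.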

Where [10] appears, read: 31 g ai/ha, scale 0 to 100 (0 no effect, 100 complete control), 13 to 15 days.
Setting [11] is: 125 g ai/ha, scale 0 to 100, 0 is no effect, 100 is complete control.
Where [12] appears, read: postemergence, 250 g ai/ha, scale 0 to 100 (0 no effect, 100 complete control).
Setting [13] is: postemergence, 125 g ai/ha, scale 0 to 100, 0 no effect, 100 complete control.
Where [14] appears, read: Preemergence, 31 g ai/ha, scale 0 to 100.
[15] abbreviates: Preemergence, 62 g ai/ha, scale 0 to 100.
[16] abbreviates: Preemergence, 125 g ai/ha, scale 0 to 100.
Where [17] appears, read: preemergence, 8 g ai/ha, scale 0 to 100, 100 is complete control.
Where [18] appears, read: preemergence, 16 g ai/ha, scale 0 to 100, 100 is complete control.
Setting [19] is: Preemergence, 250 g ai/ha, scale 0 to 100.
Setting [20] is: Postemergence, 500 g ai/ha, 0 to 100 scale (0 no effect, 100 complete control).
[21] abbreviates: postemergence, 125 g ai/ha, about 10 days, visual rating on 0 to 100 scale (0 no effect, 100 complete control).

On to `Cc1cc(C(=O)NCC(F)(F)F)nn1Cc1ccnc(C(F)(F)F)c1` [Compound 74], for which, in test [1], the “Plant response rating (scale of 0 to 100), Kochia” value amounted to 98. Besides, the “Kochia plant response rating” value in test [1] (setting [10]) and in test [1] (setting [11]) was 98 in each case. Further, the “Plant response rating, Kochia” value in [1] (13 to 15 days) is reported as 98. For the same molecule, the “Barley plant response rating” value was 0 in test [2] (Postemergence, 31 g ai/ha) and 0 in [2] (postemergence, 62 g ai/ha). The “Deadnettle plant response rating” value in test [3] (Postemergence, 31 g ai/ha) is reported as 10; in test [3] (postemergence, 62 g ai/ha), 60. Further, the “Plant response rating, Deadnettle” value was 80 in test [3] (setting [12]) and 70 in [3] (setting [13]). For the same molecule, the “Plant response rating (scale of 0 to 100), Nightshade” value in test [4] is reported as 98. Moreover, the figures for the “Nightshade plant response rating” value in [4] (setting [10]) and in test [4] (setting [11]) were 90 and 95, respectively. For the same molecule, the “Plant response rating, Nightshade” value in [4] (13 to 15 days) turned out to be 90.

For the molecule `CCc1cc(-c2ccc(C(F)(F)F)cc2)nn1Cc1ccnc(C(F)(F)F)c1` [Compound 110], the “Plant response rating, Giant Foxtail” value is 70 in [5] (setting [14]); 95 in test [5] (setting [15]); 98 in [5] (setting [16]); 25 in [5] (setting [17]); 40 in [5] (setting [18]). Moreover, the “Plant response rating, Nightshade” value turned out to be 80 in test [6] (setting [14]); 85 in test [6] (setting [15]); 95 in [6] (setting [16]); 50 in test [6] (setting [17]); 65 in test [6] (setting [18]). Also, the “Plant response rating, Velvetleaf” value in test [7] (setting [14]) worked out at 30; in test [7] (setting [15]), 40; in test [7] (setting [16]), 75; in test [7] (setting [17]), 20; in [7] (setting [18]) it was 35. For the same molecule, the “Plant response rating, Southern Sandbur” value in [8] (setting [14]) is given as 20; in test [8] (setting [15]) it was 35; in test [8] (setting [16]), 75; in test [8] (setting [17]) it was 0; in [8] (setting [18]) it was 20.

On to `CCc1cc(C(=O)NCC(F)(F)F)nn1Cc1ccnc(Br)c1` [Compound 224], for which the “Plant response rating, Giant Foxtail” value in test [5] (setting [15]) was determined as 40; in [5] (setting [16]), 75; in test [5] (setting [19]), 98. For the same molecule, the figures for the “Plant response rating, Nightshade” value in [6] (setting [16]) and in [6] (setting [19]) were 0 and 95, respectively. Besides, the “Plant response rating, Velvetleaf” value in test [7] (setting [15]) is on record as 50; in test [7] (setting [16]), 80; in [7] (setting [19]), 95. The “Plant response rating, Southern Sandbur” value is 5 in test [8] (setting [15]), 35 in [8] (setting [16]) and 15 in test [8] (setting [19]).

In the case of `CCc1cc(C(=O)NOC(C)C)nn1Cc1ccnc(OC(F)F)c1` [Compound 126], the figures for the “Italian Ryegrass plant response rating” value in [9] (setting [20]) and in [9] (setting [21]) were 100 and 90, respectively.

`CCOc1cc(C(=O)NCC(F)(F)F)nn1Cc1ccnc(OC(F)F)c1` [Compound 128]: the “Italian Ryegrass plant response rating” value in [9] (setting [20]) was 100; in [9] (setting [21]) it was 90.

For the molecule `CCCNC(=O)c1cc(OCC)n(Cc2ccnc(OC(F)F)c2)n1` [Compound 136], the “Italian Ryegrass plant response rating” value was found to be 90 in test [9] (setting [20]) and 80 in test [9] (setting [21]).

With `CCCNC(=O)c1cc(CC)n(Cc2cccc(OC(F)(F)F)c2)n1` [Compound 27], the “Barley plant response rating” value in test [2] (Postemergence, 31 g ai/ha) worked out at 10.

`CCONC(=O)c1cc(CC)n(Cc2cccc(OC(F)(F)F)c2)n1` [Compound 72]: the “Plant response rating (scale of 0 to 100), Kochia” value in test [1] was determined as 80. The “Kochia plant response rating” value worked out at 5 in test [1] (setting [10]) and 50 in test [1] (setting [11]). For the same molecule, in [1] (13 to 15 days), the “Plant response rating, Kochia” value is given as 45. The “Barley plant response rating” value in test [2] (Postemergence, 31 g ai/ha) came to 0; in test [2] (postemergence, 62 g ai/ha) it was 5. The “Deadnettle plant response rating” value in test [3] (Postemergence, 31 g ai/ha) is given as 40; in test [3] (postemergence, 62 g ai/ha), 40. The results for the “Plant response rating, Deadnettle” value in test [3] (setting [12]) and in [3] (setting [13]) were 70 and 40, respectively. Besides, in test [4], the “Plant response rating (scale of 0 to 100), Nightshade” value is on record as 100. The “Nightshade plant response rating” value in test [4] (setting [10]) is recorded as 75; in [4] (setting [11]), 98. For the same molecule, the “Plant response rating, Nightshade” value in test [4] (13 to 15 days) is 98.

With `CCc1cc(C(=O)NCC(F)(F)F)nn1Cc1cccc(OC(F)(F)F)c1` [Compound 20], in [2] (Postemergence, 31 g ai/ha), the “Barley plant response rating” value is reported as 15.

`CCCc1cc(C(=O)NCC(F)(F)F)nn1Cc1ccnc(OC(F)F)c1` [Compound 127]: the “Italian Ryegrass plant response rating” value in test [9] (setting [20]) amounted to 90; in test [9] (setting [21]), 80.

Regarding `CCCc1cc(C(=O)NC2CC2)nn1Cc1ccnc(OC(F)F)c1` [Compound 205], the “Italian Ryegrass plant response rating” value came out at 70 in test [9] (Postemergence, 125 g ai/ha, 0 to 100 scale, 0 no effect, 100 complete control) and 100 in test [9] (setting [20]).

`CCCc1cc(C(=O)NC(C)C)nn1Cc1cc(C(F)(F)F)nn1C` [Compound 201]: the “Plant response rating, Giant Foxtail” value in test [5] (setting [15]) amounted to 75; in test [5] (setting [16]), 75; in test [5] (setting [19]), 100; in [5] (setting [18]) it was 0. Further, the “Plant response rating, Nightshade” value in test [6] (Preemergence, 16 g ai/ha, scale 0 to 100) was found to be 10; in test [6] (setting [15]) it was 80; in test [6] (setting [16]), 95; in test [6] (setting [19]), 98; in test [6] (setting [18]) it was 0. Besides, the “Plant response rating, Velvetleaf” value in [7] (setting [15]) was determined as 0; in test [7] (setting [16]), 30; in [7] (setting [19]) it was 100; in test [7] (setting [18]), 0; in test [7] (preemergence, scale 0 to 100, 100 is complete control) it was 0. The “Plant response rating, Southern Sandbur” value in [8] (setting [15]) stood at 0; in test [8] (setting [16]), 30; in test [8] (setting [19]), 75; in test [8] (setting [18]), 0.

The record behind these values is patent publication US20150105252A1, “SUBSTITUTED PYRAZOLES AS HERBICIDES” (E I DU PONT DE NEMOURS AND COMPANY, priority 2013, published 2015).
